Source: patent US9326511B2, “Methods of inhibiting microbial biofilms” (priority 2008, dated 2016)
Where two headings read alike, the source gives them in different places.

Assays:
E. coli cells = assay: Binding of compounds with bacterial cells (spectrofluorimetric analysis of cell lysates); settings: 5 min incubation
Procedure: […] At the end of the incubation period, the cells were sedimented by centrifugation to remove the fraction of unbound test compound and the cell pellet was resuspended in 2 ml of 2% SDS to obtain cell lysates. After overnight incubation with SDS, the amount of cell-bound test compound was estimated by spectrofluorimetric analysis of the cell lysates. The concentration of the compounds in the cell lysates was calculated by measuring the intensities at the maximum of the emission fluorescence spectrum and interpolating the data on a calibration plot. The amount of cell-bound test compound was expressed as nmoles of compound per mg of cell protein. The protein concentration was determined by the method of Lowry (Lowry et al., 1951, J. Biol. Chem. 193:265-275).
All experiments were run in triplicate and the results represent the average of 3 determinations with standard deviations.

[1] = Acute dermal toxicity test (OECD 402); assay type: in vivo; settings: 3.2 mM in a topical formulation
Procedure: Compound 10 was tested at 3.2 mM in a topical formulation in a standard acute dermal toxicity test to determine if any clinical or histological toxicity for the compound could be detected.
The acute toxicity protocol was based on OECD Guidelines for the testing of chemicals/Section 4—Health Effects Test Number 402: Acute Dermal Toxicity.

[2] = Chemical stability, qualitative stress tests (HPLC, LC-MS); assay type: physicochemical; settings: solid, aqueous solution, PBS, 7 days each at 50, 70 and 90° C.
Procedure: The following HPLC methodology was established for the analysis of the exemplary compounds of the invention.
The method involves detection by UV at a wavelength of 420 nm, which is very specific for these compounds. In order to monitor impurities not related to the porphyrin structure (and therefore not absorbing at 420 nm) UV spectra of the whole chromatograms were also recorded between 200 nm and 700 nm by DAD (diode array detector) in certain experiments. • Column: Zorbax Phenyl, 250×4.6 mm, 5 µm • Eluent A: 1.5 g sodium dodecylsulfate+1 mL formic acid in 1000 mL water • Eluent B: 1.5 g sodium dodecylsulfate+1 mL formic acid in 200 mL water+800 mL tetrahydrofurane • Gradient:
• Flow rate: 0.4 mL/min • Detection: 420 nm • Column temperature: 25° C. • Injection volume: 10 μl • Solutions: Porphyrin derivatives were dissolved in eluent A to give a final concentration of approximately 0.3 mg/ml.
Qualitative stress tests were undertaken on the exemplary compounds of the invention. Analysis was undertaken by HPLC & LC-MS. The compounds were stress tested in solid form, in an aqueous solution and a solution made up in phosphate-buffered saline buffer. The samples were initially incubated for 7 days at 50° C. and a sample removed for testing. The samples were then incubated for a further 7 days at 70° C., samples removed as before and the samples incubated further for 7 days at 90° C. HPLC analysis of freshly prepared solutions was undertaken and compared to the samples after 7, 14 and 21 days incubation. A visual comparison of the chromatograms was then undertaken and the content of the main products and by-products as area percentage values determined (see FIG. 4).

[3] = test system: normal human epidermal keratinocytes (NHEK); assay: Toxicity against human skin cells, MTT-assay; assay type: cell-based; settings: 5 min, 1 h, 4 h incubation, 0.01-10 μM, then 24 h in the dark
Procedure: NHEK were incubated with different concentrations of Compound 10 for 5 min, 1 h and 4 h (0 μM, 0.01 μM, 0.1 μM, 1.0 μM, 10 μM). Cells were then incubated for 24 h in the dark. Toxicity was tested by standard MTT-assay. Cell viability was normalised to one, which means, the values of control cells were normalised to one. Red dotted line: 5 min incubation; black dotted: 1 h incubation; blue dotted: 4 h incubation only; (n=3, mean±SD).
Test compounds were screened for toxicity against cultured human skin cells using normal human epidermal keratinocytes (NHEK) and normal human dermal fibroblasts (NHDF), purchased from CellSystems Biotechnologie GmbH, Germany.
The NHEK and NHDF cells were used between passages 3 and 10. The cells were seeded with 7.5 and/or 15×10^4 cells/well (microtitre plate) and were allowed to attach overnight in an incubator (37° C., 5% CO2). After incubation with different concentrations of the selected photosensitisers for various times, the cells were incubated for 24 hours in the dark.
Toxicity was tested by standard MTT-assay (Mossman et al., 1983 J. Immunological Methods 65: 55-63). MTT is an indicator of metabolically active cells. Dependent on enzyme activity in mitochondria a colour reaction can be visualised, which can be measured by ELISA reader (540 nm). […]

[4] = test system: S. aureus SH1000 biofilms; assay: Biofilm MIC and minimum biofilm eradication concentration, Calgary Biofilm Device; assay type: cell-based, Staphylococcus aureus; settings: Staphylococcus aureus, SH1000BIOFILMS, biofilm MIC, read-out: bMIC
Procedure: Methods: MICs were determined for planktonic cultures by broth microdilution according to British Society for Antimicrobial Chemotherapy (BSAC) guidelines. Biofilm MICs (bMIC) and minimum biofilm eradication concentrations (MBECs) were determined using the Calgary biofilm device. The effect of Compound 10 on the viability of cold culture cells was determined by growing S. aureus SH1000 to early exponential phase at 37° C. and resuspending the cells in pre-chilled media, where they were maintained in the presence and absence of Compound 10 and control agents. The effect of Compound 10 on slow growing cells expressing the stringent response was also determined by growing cultures to early log phase and the stringent response induced by the addition of the isoleucyl-tRNA synthetase inhibitor mupirocin. Compound 10 and control agents were then added and samples recovered for viable cell determinations.
Biofilm MICs and minimum biofilm eradication concentrations (MBEC) were determined in the Calgary Biofilm Device (Nunc Inc, Roskilde, Denmark) as described by Miller et al., 2005. This involves the following steps. Aliquots (200 μL) of exponential phase cultures of strain SH1000 were added to each well of a 96-well microtitre tray. The lid assembly, which has 96 polystyrene pegs corresponding to each well, was then replaced and the system incubated for 24 hours at 37° C. on a rocking platform. Following this a biofilm of approximately 10^7 cfu matured on each peg. The lid was then washed twice in phosphate-buffered saline (PBS) to remove residual planktonic growth and then placed into a microtitre tray with fresh media containing doubling dilutions of the test antibiotic. The system was then incubated for 24 hours at 37° C. on a rocking platform. The MIC was defined as the lowest concentration of antibiotic completely inhibiting visible growth after this incubation. After the MIC was recorded, the lid assembly was again washed twice in PBS to remove planktonic cells and remaining antibiotic and then placed into fresh drug-free media. The system was incubated for a further 24 hours and the MBEC was defined as the lowest concentration of antibiotic completely inhibiting the re-establishment of planktonic growth.

[5] = 24 h, S. aureus SH1000, Calgary Biofilm Device, 24 hours (Table 6)

Question: For `C[N+](C)(C)CCCOc1ccc(-c2c3nc(cc4ccc([nH]4)c(-c4ccc(OCCC[N+](C)(C)C)cc4)c4nc(cc5ccc2[nH]5)C=C4)C=C3)cc1.[Cl-].[Cl-]` [Compound 10, 5,15-bis-[4-(3-Trimethylammonio-propyloxy)-phenyl]-porphyrin dichloride], which Bound compound (E. coli cells; 0.01 μM compound, 0 washings) is on record?
Answer: Its Bound compound is 0.026 ± 0.005 nmoles/mg cell proteins.

Question: What about the Bound compound (E. coli cells; 0.01 μM compound, 3 washings) of the same molecule?
Answer: The Bound compound was 0.015 ± 0.0004 nmoles/mg cell proteins.

Question: What about the Bound compound (E. coli cells; 0.1 μM compound, 0 washings) of the same molecule?
Answer: The Bound compound was 0.274 ± 0.05 nmoles/mg cell proteins.

Question: And the Bound compound (E. coli cells; 0.1 μM compound, 3 washings)?
Answer: Its Bound compound is 0.078 ± 0.02 nmoles/mg cell proteins.

Question: What about the Bound compound (E. coli cells; 0.5 μM compound, 0 washings) of the same molecule?
Answer: Its Bound compound is 1.542 ± 0.350 nmoles/mg cell proteins.

Question: What about the Bound compound (E. coli cells; 0.5 μM compound, 3 washings) of the same molecule?
Answer: The Bound compound was 0.334 ± 0.092 nmoles/mg cell proteins.

Question: And the Bound compound (E. coli cells; 1 μM compound, 0 washings)?
Answer: Its Bound compound is 2.70 ± 0.354 nmoles/mg cell proteins.

Question: What about the Bound compound (E. coli cells; 1 μM compound, 3 washings) of the same molecule?
Answer: The Bound compound was 1.278 ± 0.102 nmoles/mg cell proteins.

Question: And the “Acute dermal toxicity (clinical and histological)” value [1]?
Answer: Its value is “does not result in any acute toxic effect”.

Question: What about the “Chemical stability under stress” value [2] of the same molecule?
Answer: The value was “good stability”.

Question: What about the “Innate toxicity (cell viability, MTT)” value [3] of the same molecule?
Answer: Its value is “does not demonstrate an innate toxicity”.

Question: What about the MIC [4, 5] of the same molecule?
Answer: Its MIC is 1 µg/mL.

Question: And the MIC ([4]; S. aureus SH1000, Calgary device (Example H))?
Answer: The MIC was 1 µg/mL.

Question: For `C[N+](C)(C)CCCOc1cccc(-c2c3nc(cc4ccc([nH]4)c(-c4cccc(OCCC[N+](C)(C)C)c4)c4nc(cc5ccc2[nH]5)C=C4)C=C3)c1.[Cl-].[Cl-]` [Compound 12, 5,15-bis-[3-(3-Trimethylammonio-propyloxy)-phenyl]-porphyrin dichloride], which Bound compound (E. coli cells; 0.01 μM compound, 0 washings) is on record?
Answer: The Bound compound was 0.041 ± 0.02 nmoles/mg cell proteins.

Question: And the Bound compound (E. coli cells; 0.01 μM compound, 3 washings)?
Answer: The Bound compound was 0.021 ± 0.005 nmoles/mg cell proteins.

Question: What about the Bound compound (E. coli cells; 0.1 μM compound, 0 washings) of the same molecule?
Answer: Its Bound compound is 0.151 ± 0.02 nmoles/mg cell proteins.

Question: And the Bound compound (E. coli cells; 0.1 μM compound, 3 washings)?
Answer: Its Bound compound is 0.089 ± 0.02 nmoles/mg cell proteins.

Question: What about the Bound compound (E. coli cells; 0.5 μM compound, 0 washings) of the same molecule?
Answer: The Bound compound was 0.806 ± 0.14 nmoles/mg cell proteins.

Question: What about the Bound compound (E. coli cells; 0.5 μM compound, 3 washings) of the same molecule?
Answer: Its Bound compound is 0.622 ± 0.10 nmoles/mg cell proteins.

Question: What about the Bound compound (E. coli cells; 1 μM compound, 0 washings) of the same molecule?
Answer: Its Bound compound is 2.70 ± 0.30 nmoles/mg cell proteins.

Question: What about the Bound compound (E. coli cells; 1 μM compound, 3 washings) of the same molecule?
Answer: The Bound compound was 1.930 ± 0.20 nmoles/mg cell proteins.

Question: What about the “Chemical stability under stress” value [2] of the same molecule?
Answer: The value was “good stability”.

Question: What about the MIC [4, 5] of the same molecule?
Answer: The MIC was 1 µg/mL.
